Test results as given in patent publication US5318967A, “2,3,3a,4,5,9b-hexahydro-1H-benzo[e]indole derivatives” (priority 1991, dated 1994).
Structures can show the parent of a compound that is named as a salt. Where two headings read alike, the source gives them in different places.

Legend:
acetylcholine esterase = acetylcholine esterase (Homo sapiens, UniProt P22303); experiment: biochemical
Text: The determination of the acetylcholine esterase inhibition was effected according to the method of Ellmann et al., Biochem. Pharmacol. 7 (1961) 88, and/or according to the method of Johnson et al., Analytical Biochemistry 64 (1975), 229.

rat = experiment: Toxicity, lowest lethal dose (LLD), rat
mouse = experiment: Toxicity, lowest lethal dose (LLD), mouse; format: in vivo; conditions: po mouse
Sigma = Sigma receptor binding, [3H]-DTG (Weber et al.); conditions: for Percentage inhibition: [3H]-DTG
Text: (§1) Furthermore, the compounds of formula I have affinity for sigma receptors, determined according to Weber et al., Proc. Natl. Acad. Sci. USA 83 (1986), 8784) and in part also for muscarinic receptors, determined according to Watson et al., Pharmacol. Exp. Ther. 237 (1986), 419 and according to Eberlein et al., Trends Pharmacol. Science 10 (1989), 50.

M1 = experiment: Muscarinic M1 receptor binding, [3H]-Pirenzepine
Text: as §1

M2 = experiment: Muscarinic M2 receptor binding, [3H]-AFDX 384
Text: as §1

muscarinic receptors [1] = experiment: Affinity for muscarinic receptors (Watson et al.; Eberlein et al.); format: binding
Text: as §1

muscarinic receptors [2] = experiment: Antagonism of contraction of guinea pig plexus myentericus preparation induced by muscarinic agonists (Kilbinger et al.); conditions: micromolar concentrations
[3] = IC 50 for acetylcholine esterase inhibition
[4] = read-out: IC 50 for acetylcholine esterase inhibition

Sequence of acetylcholine esterase (P22303 32-614): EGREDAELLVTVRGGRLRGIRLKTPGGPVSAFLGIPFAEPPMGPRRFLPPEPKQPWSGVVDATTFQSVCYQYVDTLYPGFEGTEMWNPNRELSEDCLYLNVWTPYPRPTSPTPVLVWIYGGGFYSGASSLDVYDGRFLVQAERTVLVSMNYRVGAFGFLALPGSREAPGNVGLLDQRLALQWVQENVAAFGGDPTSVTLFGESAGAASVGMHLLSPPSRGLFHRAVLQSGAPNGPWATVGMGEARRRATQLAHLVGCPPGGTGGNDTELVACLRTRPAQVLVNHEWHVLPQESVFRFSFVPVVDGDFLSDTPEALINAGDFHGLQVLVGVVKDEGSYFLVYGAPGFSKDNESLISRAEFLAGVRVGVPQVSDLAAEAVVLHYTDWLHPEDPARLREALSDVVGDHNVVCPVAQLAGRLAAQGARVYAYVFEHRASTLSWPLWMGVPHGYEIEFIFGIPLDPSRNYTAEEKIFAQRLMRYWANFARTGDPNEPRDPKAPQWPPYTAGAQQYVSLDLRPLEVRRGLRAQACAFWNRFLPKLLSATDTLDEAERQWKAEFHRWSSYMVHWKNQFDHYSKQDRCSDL

Structure (SMILES) | IC50 (acetylcholine esterase; [3]) [nM] | LLD (lowest lethal dose) (rat; sc rat) [mg/kg] | IC50 (acetylcholine esterase; [4]) [nM] | also measured
CN(C)C(=O)Oc1cccc2c1CC[C@H]1[C@@H]2CCN1CCCCCCN1C(=O)c2ccccc2C1=O.Cl (racemic) [E, rac-cis-2,3,3a,4,5,9b-hexahydro-3-(6-phthalimidohexyl)-1H-benzo[e]indol-6-yl dimethylcarbamate hydrochloride] | 0.4 | 10 |  | 
CN(C)C(=O)Oc1cccc2c1CC[C@H]1[C@@H]2CCN1CCC1CCCCC1.Cl (racemic) [C, rac-cis-3-(2-cyclohexylethyl)-2,3,3a,4,5,9b-hexahydro-1H-benzo[e]indol-6-yl dimethylcarbamate hydrochloride] | 16 |  |  | LLD (lowest lethal dose) (rat; ip rat): 30 mg/kg
CN(C)C(=O)Oc1cccc2c1CC[C@H]1[C@@H]2CCN1CCCCN1C(=O)c2ccccc2C1=O.Cl (racemic) [D, rac-cis-2,3,3a,4,5,9b-hexahydro-3-(4-phthalimidobutyl)-1H-benzo[e]indol-6-yl dimethylcarbamate hydrochloride] | 1.4 |  |  | LLD (lowest lethal dose) (rat; ip rat): 3 mg/kg
CCCN1CC[C@@H]2c3c(cccc3OC(=O)N(C)C)CC[C@@H]21 (racemic) [G, rac-cis-2,3,3a,4,5,9b-hexahydro-3-propyl-1H-benzo[e]indol-9-yl dimethylcarbamate] |  |  | 350 | LLD (lowest lethal dose) (mouse): 125 mg/kg
CN(C)C(=O)Oc1cccc2c1CC[C@H]1[C@@H]2CCN1CCN1CCOCC1.Cl.Cl (racemic) [F, rac-cis-2,3,3a,4,5,9b-hexahydro-3-(2-morpholinoethyl)-1H-benzo[e]indol-6-yl dimethylcarbamate dihydrochloride] | 108 | 30 |  | 
CN(C)C(=O)Oc1cccc2c1CC[C@H]1[C@@H]2CCN1CCC1CCCCC1.Cl (single isomer, unassigned) [A, (+)-cis-3-(2-cyclohexylethyl)-2,3,3a,4,5,9b-hexahydro-1H-benzo[e]indol-6-yl dimethylcarbamate hydrochloride] | 22 | 30 |  | affinity for sigma receptors (in words) (Sigma): affinity to sigma receptors; Percentage inhibition (Sigma; 10^-5 M): 100.7%; Percentage inhibition (Sigma; 10^-7 M): 62.1%; Percentage inhibition (M1; 10^-5 M): 87.9%; Percentage inhibition (M1; 10^-7 M): 2.2%; Percentage inhibition (M2; [3H]-AFDX 384, 10^-5 M): 94.8%; Percentage inhibition (M2; [3H]-AFDX 384, 10^-7 M): 31.3%; affinity for muscarinic receptors (in words) (muscarinic receptors [1]): preferential affinity for muscarinic receptors of the M2 type; antagonism of contraction induced by muscarinic agonists (in words) (muscarinic receptors [2]): in micromolar concentrations it antagonizes a contraction of a preparation of guinea pig plexus myentericus induced by muscarinic agonists
CCCN1C[C@@H](C)[C@@H]2c3cccc(OC(=O)N(C)C)c3CC[C@@H]21 (relative stereo) [H, rac-2,3,3aα,4,5,9bα-hexahydro-1α-methyl-3-propyl-1H-benzo[e]indol-6-yl dimethylcarbamate] |  | 100 | 488 | 
CN(C)C(=O)Oc1cccc2c1CC[C@@H]1[C@H]2CCN1CCCCNC(=O)c1ccc(S(C)(=O)=O)cc1 (relative stereo) [rac-N-[4-(6-dimethylcarbamoyloxy)-cis-2,3,3a,4,5,9b-hexahydro-1H-benzo[e]indol-3-yl)-butyl]-4-methanesulfonylbenzamide] |  |  | 6.7 | 
CCCN1CC[C@@H]2c3cccc(OC(=O)N(C)C)c3CC[C@@H]21 (racemic) [rac-3-propyl-cis-2,3,3a,4,5,9b-hexahydro-1H-benzo[e]indol-6-yl dimethylcarbamate] |  |  | 40 | 
CN(C)C(=O)Oc1cccc2c1CC[C@H]1[C@@H]2CCN1CCC1CCCCC1 (single isomer, unassigned) [B, (-)-cis-3-(2-cyclohexylethyl)-2,3,3a,4,5,9b-hexahydro-1H-benzo[e]indol-6-yl dimethylcarabamate hydrochloride] |  | 30 | 30 | 
CN(C)C(=O)Oc1cccc2c1CC[C@H]1[C@@H]2CCN1CCCC(=O)c1ccccc1 (racemic) [rac-3-(3-benzoyl-propyl)-cis-2,3,3a,4,5,9b-hexahydro-1H-benzo[e]indol-6-yl dimethylcarbamate] |  |  | 8.3 | 
CN(C)C(=O)Oc1cccc2c1CC[C@H]1[C@@H]2CCN1CCCCN1Cc2ccccc2C1=O (racemic) [rac-3-[4-(1-oxo-isoindolin-2-yl)-butyl]-cis-2,3,3a,4,5,9b-hexahydro-1H-benzo[e]indol-6-yl dimethylcarbamate] |  |  | 8.6 | 
CN(C)C(=O)Oc1cccc2c1CC[C@@H]1[C@H]2CCN1CCCCCNC(=O)c1ccccc1 (relative stereo) [rac-3-(5-benzoylaminopentyl)-2,3,3a,4,5,9b-hexahydro-1H-cis-benzo[e]indol-6-yl dimethylcarbamate] |  |  | 15.2 | 
